Drawing on patent publication US20130225522A1, “COMPOSITION FOR RELIEVING STIMULUS OF SKIN CAUSED BY DYE” (Amorepacific Corporation, priority 2009, published 2013), this text covers Ear thickness and Ear weight for one molecule.

The assay concerns mouse ear. Put plainly: mouse ear swelling test (MEST). Type of assay: in vivo. The note with it: BALB/c mouse. As for the experimental part: To evaluate an effect of relieving skin irritation caused by a dye and for preventing or inhibiting inflammation caused by a dye, the mouse ear swelling test (MEST) using a mouse is carried out in the manner as described below.
A 7 weeks-aged mouse subject (BALC/c) is obtained and subjected to quarantine and adaptation for a period of 10 days. Then, the mouse is dehaired at its abdominal portion, and a main ingredient of dye, i.e. 3% paraphenylene diamine (PPD) is applied thereto in combination with a monosaccharide (glucose, galactose or fructose) or disaccharide (maltose, lactose or sucrose) for 7 days three times a day. As a control, each of dimethyl sulfoxide (DMSO) solvent and 3% PPD is applied. Twenty-four hours after the final application, the mouse ear is weighed. After weighing, the mouse ear is fixed in formalin and subjected to hematoxylin & eosin (H&E) staining for a histopathological test. Then, the thickness of the mouse ear is determined. Herein, the weight of the mouse ear is measured by biopsy of the ear of the mouse subject (Balb/c), to which each test sample is applied, using a 6 mm punch. The thickness of the mouse ear is determined by measuring the thickness of the ear of the mouse subject (Balb/c) stained after weighing the mouse ear weight by using a microscope.

SMILES strings stand for the structures.

Turning to `Nc1ccc(N)cc1` [PPD (3%), paraphenylene diamine], the Ear thickness (3% PPD alone or in combination with saccharide applied for 7 days three times a day, formalin-fixed, H&E stained ear measured by microscope) turned out to be 433.28 ± 11.57 μm. Besides, the Ear weight (3% PPD alone or in combination with saccharide applied to dehaired abdominal portion for 7 days three times a day, ear weighed 24 h after final application, 6 mm punch biopsy) came out at 14.74 ± 0.23 mg.
